# Measurements reported in patent US9610262B2, “Therapeutic and/or preventive agent comprising 1-indansulfamide derivative for pain” (Eisai R&D Management Co., Ltd., priority 2013, dated 2017).
# How the values were obtained:
# [1] = system: acute pain (mice hot plate, 53° C.); assay: Mice hot-plate test; format: in vivo, Male C57BL/6NCrlCrlj mice; settings: oral, 60 minutes before the hot-plate test; FIG. 1
# Description: The mice hot-plate test was performed to determine the efficacy on acute pain. In this model, latency to the first pain response is recorded as a measure of pain sensitivity (Malmberg, A. and Yaksh, T., Pain. 1995, 60: 83-90).
# Male C57BL/6NCrlCrlj mice (Charles River Japan) aged 6 weeks (n=4 to 10, for each treatment) were used for this experiment. The hot plate (model MK 350, Muromachi Kikai Co. Ltd) was set to 53° C. For oral administration, the test compound was suspended in an aqueous solution containing 0.45% methyl cellulose/4.5% Cremophor/10% dimethyl sulfoxide to prepare a suspension having a dosing volume of 10 ml/kg and the suspension was administered orally 60 minutes before the hot-plate test Morphine was used as a positive control and the mixed solvent (vehicle) alone not containing the test compound was used as a negative control.
# Each mouse was placed on the hot plate and a stopwatch was immediately started for measurement. The latency time to the first pain response (paw lick or escape jump) was measured. The cut-off time was set to 30 seconds in order to avoid overdamage of the tissues, and the mouse was immediately removed from the hot-plate after measurement. All data are expressed as the mean±SEM. All statistical analyses were performed using Holm-Sidak's multiple comparisons test. The p-values less than 0.05 were judged as statistically significant in this experiment.
# [2] = system: tactile allodynia in rat chronic constriction injury (CCI) model; assay: Rat chronic constriction injury (CCI) model, von Frey filament test; format: in vivo, Male SD rats; settings: for 50% Response threshold: mean±SEM; for response threshold against mechanical stimulation: pre-administration, 10 and 50 mg/kg oral
# From the text: The rat chronic constriction injury (CCI) model was used to determine the efficacy on the chronic pain. In this model, tactile allodynia, a typical symptom in chronic pain patients, can be evaluated by using a response threshold against mechanical stimulation by von Frey filaments as an index (Bennett G. J. and Xie, Y. K., (Pain 1988; 33: p 87-107).
# Male SD rats (Charles River Japan) aged 6 weeks (n=4, each treatment performed twice in total) were used for this experiment. The rat chronic constriction injury (CCI) model was prepared in accordance with the method of Bennett and Xie above.
# The common sciatic nerve was exposed at the level of the middle of the thigh by blunt dissection through biceps femoris under isoflurane anesthesia. Four ligatures (4-0 silk) were tied loosely around the sciatic nerve at about 1 mm spacing. The biceps femoris and the skin were sutured.
# On 14 days after surgery, efficacy of the compounds on tactile allodynia was evaluated. The animals were housed in wire mesh bottom cages for 30 minutes prior to the start of the experiment for acclimation. The test compound was suspended in an aqueous solution containing 0.45% methyl cellulose/4.5% Cremophor/10% dimethyl sulfoxide to prepare a suspension having a dosing volume of 10 ml/kg and the suspension was administered orally. The above mixed solvent (vehicle) alone not containing the test compound was used as a negative control. The response threshold against mechanical stimulation was measured by the application of von Frey filaments at bending forces (0.4, 0.6, 1, 2, 4, 6, 8, and 15 g) to the plantar surface of the hind paw in accordance with Chaplan et al. (J Neuroscience Methods 1994; 53(1): p. 55-63). The von Frey filaments were pushed to the paw for 6 seconds to evaluate escape response. The 50% response threshold was determined in accordance with the up-down method of Dixon (Annual Review of Pharmacology and Toxicology 1980; 20: p. 441-462). The measurement was performed before administration and at 30, 90 and 180 minutes after administration. All data are expressed as the mean±SEM. All statistical analyses were performed using Two way Repeated Measures ANOVA followed by Dunnett's test. The p-values less than 0.05 were judged as statistically significant in this experiment.
# [3] = system: acute persistent pain (formalin-injected paw); assay: Formalin test (second phase); format: in vivo, Male CD1 (ICR) mice; settings: oral pre-administration; 15 to 45 minutes after injection of 2.5% formalin; FIG. 2
# Description: The compounds were examined in the second phase of the formalin test to determine an analgesic effect on acute persistent pain. In this model, the duration of responses induced by pain (behavior such as licking or biting of the formalin-injected paw) is used as an evaluation index (Dubuisson and Dennis (Pain, 4: p. 161-174 (1977)). Male CD1 (ICR) mice (Charles River Japan) aged 5 to 6 weeks (n=6 to 16, for each treatment) were used for the experiment. The responses induced by pain were measured by an automated behavioral analysis apparatus (MicroAct (Neuroscience, Inc.)) according to detection of changes in magnetic field. Before the day prior to evaluation of pain response, a small magnet for the detection of changes in magnetic field was implanted in the left hindlimb instep under isoflurane anesthesia. For oral administration, the test compound was suspended in a solution containing 0.45% methyl cellulose/4.5% Ceremophor/10% dimethyl sulfoxide to prepare a suspension having a dosing volume of 10 ml/kg and the suspension was administered orally. The mixed solvent as above (vehicle) alone not containing the test compound was used as a negative control. Gabapentin was intraperitoneally administered as a positive control. A 2.5% formalin solution was prepared by diluting Formaldehyde Solution (Wako Pure Chemical Industries) with physiological saline (Otsuka Pharmaceutical). At 40 minutes to an hour after administration of the test compound or the positive control, 10 μl of the 2.5% formalin solution was subcutaneously injected in the left hindlimb pad. The mouse was placed in an observation chamber immediately after administration for measurement. For evaluation of an analgesic effect in the second phase, the duration of behaviors such as licking or biting of the paw was measured by the automated behavioral analysis apparatus from 15 to 45 minutes after injection of the 2.5% formalin solution. All data are expressed as the mean±SEM. All statistical analyses were performed using the Holm-Sidak's multiple comparisons test. The p-values less than 0.05 were judged as statistically significant in this experiment.
# [4] = 10 mg/kg oral, 30 min after administration
# [5] = 10 mg/kg oral, 90 min after administration
# [6] = 10 mg/kg oral, 180 min after administration
# [7] = 10 mg/kg oral, Pre (before administration), 14 days after surgery
# [8] = 50 mg/kg oral, 30 min after administration
# [9] = 50 mg/kg oral, 90 min after administration
# [10] = 50 mg/kg oral, 180 min after administration
# [11] = 50 mg/kg oral, Pre (before administration), 14 days after surgery
Compound,latency time to the first pain response [1],"50% Response threshold [2, 4] [g]","50% Response threshold [2, 5] [g]","50% Response threshold [2, 6] [g]","50% Response threshold [2, 7] [g]",analgesic effect on tactile allodynia in CCI model ([2]; 50 mg/kg oral),"50% Response threshold [2, 8] [g]","50% Response threshold [2, 9] [g]","50% Response threshold [2, 10] [g]","50% Response threshold [2, 11] [g]",response threshold against mechanical stimulation [2],duration of the pain response [3]
"NS(=O)(=O)N[C@H]1c2c(F)cc(F)cc2CC1(F)F [Compound 1, N-[(1S)-2,2,5,7-tetrafluoro-2,3-dihydro-1H-inden-1-yl]sulfamide]",significantly increased,3.2 ± 0.3,4.4 ± 0.5,3.1 ± 0.3,2.4 ± 0.2,statistically significant analgesic effect,6.0 ± 0.7,11.4 ± 1.4,5.3 ± 0.6,2.3 ± 0.2,increased in an approximately dose dependent manner,statistically significantly shortened
"NS(=O)(=O)NC[C@H]1COc2cc(Cl)ccc2O1 [compound 2, (2S)-(−)-N-(6-chloro-2,3-dihydro-benzo[1,4]dioxin-2-ylmethyl)-sulfamide, reference compound]",–,2.9 ± 0.4,3.2 ± 0.4,3.0 ± 0.2,2.6 ± 0.2,–,3.5 ± 0.3,4.5 ± 0.4,3.6 ± 0.6,2.6 ± 0.2,–,–
"Cc1cccc2c1[C@H](NS(N)(=O)=O)C(F)(F)C2 [Compound 3, N-[(1S)-2,2-difluoro-7-methyl-2,3-dihydro-1H-inden-1-yl]sulfamide]",significantly increased,2.6 ± 0.4,3.5 ± 0.7,3.9 ± 0.4,2.4 ± 0.2,–,3.1 ± 0.4,3.2 ± 0.5,4.0 ± 0.4,2.4 ± 0.2,–,statistically significantly shortened
"NS(=O)(=O)NC1c2c(Cl)cc(F)cc2CC1(F)F (single isomer, unassigned; (-)) [Compound 2, (−)-N-(7-chloro-2,2,5-trifluoro-2,3-dihydro-1H-inden-1-yl)sulfamide]",significantly increased,3.2 ± 0.4,4.1 ± 0.5,3.1 ± 0.2,2.4 ± 0.2,statistically significant analgesic effect,4.2 ± 0.6,7.6 ± 1.1,4.0 ± 0.5,2.3 ± 0.2,increased in an approximately dose dependent manner,statistically significantly shortened
"Cc1cc(F)cc2c1[C@H](NS(N)(=O)=O)C(F)(F)C2 [Compound 4, N-[(1S)-2,2,5-Trifluoro-7-methyl-2,3-dihydro-1H-inden-1-yl]sulfamide]",significantly increased,3.6 ± 0.4,5.2 ± 1.5,5.2 ± 1.0,2.4 ± 0.2,–,4.3 ± 0.9,6.9 ± 1.5,5.6 ± 1.6,2.4 ± 0.2,–,statistically significantly shortened
"NS(=O)(=O)NCc1csc2ccccc12 [compound 1, N-(benzo[b]thiophen-3-ylmethyl)sulfamide, reference compound]",–,2.7 ± 0.4,3.4 ± 0.2,3.4 ± 0.3,2.5 ± 0.2,–,3.5 ± 0.3,3.9 ± 0.3,2.8 ± 0.2,2.5 ± 0.2,–,–
